PubChem BioAssay (NCI)
Values joined by “and” are separate entries in the source; they are usually repeats but may differ in a detail not shown here. Equal values may be shown once.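 48-hour exposure; five concentrations; linearly interpolated endpoints. At the GI50, growth is halved. TGI marks complete inhibition of growth.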

What was measured:
Assay in all cases: growth of human tumour cells (NCI), 48 h
UO-31 renal = tested on: UO-31 renal
RPMI-8226 leukemia = tested on: RPMI-8226 leukemia
K-562 leukemia = tested on: K-562 leukemia
786-0 renal = tested on: 786-0 renal
SK-MEL-28 melanoma = tested on: SK-MEL-28 melanoma
DU-145 prostate = tested on: DU-145 prostate
HS 578T breast = tested on: HS 578T breast
OVCAR-3 ovarian = tested on: OVCAR-3 ovarian

SMILES	GI50 (UO-31 renal)	TGI (UO-31 renal)	GI50 (RPMI-8226 leukemia)	TGI (RPMI-8226 leukemia)	GI50 (K-562 leukemia)	TGI (K-562 leukemia)	GI50 (786-0 renal)	TGI (786-0 renal)	GI50 (SK-MEL-28 melanoma)	TGI (SK-MEL-28 melanoma)	GI50 (DU-145 prostate)	TGI (DU-145 prostate)	GI50 (HS 578T breast)	TGI (HS 578T breast)	GI50 (OVCAR-3 ovarian)	TGI (OVCAR-3 ovarian)
Cc1cnc(NC(=O)Nc2cc(Br)c(C)cc2OC[C@@H]2CNCCO2)cn1	0.483 µM and 1.06 µM	> 10 µM and 12 µM	3.05 µM and 1.52 µM	> 10 µM and 8.52 µM	0.466 µM and 0.419 µM	6.27 µM and 2.5 µM	0.417 µM and 0.353 µM	> 10 µM and 5 µM	2.21 µM and 2.44 µM	6.65 µM and 6.88 µM	2.08 µM and 0.659 µM	> 10 µM and 11.5 µM	0.572 µM and 0.771 µM	> 10 µM and 8.82 µM	1.37 µM and 1.13 µM	> 10 µM and 10.2 µM
COc1cc(/C=C2\C(=O)Nc3cc(C)c(O)cc32)cc(OC)c1OC	4.94 µM	41.6 µM	1.47 µM	4.41 µM	1.67 µM	10.4 µM	10.4 µM	23.5 µM	7.59 µM	23 µM	3.67 µM	17.1 µM	2.18 µM	9.93 µM	3.62 µM	12.8 µM
Cc1sc2nc(-c3ccncc3)c(/C=N/N=C(N)N)n2c1C	54.1 µM	> 100 µM	28 µM	78.2 µM	34.7 µM	> 100 µM	32.2 µM	92.1 µM	68.9 µM	> 100 µM	50.8 µM	> 100 µM			26 µM	89.7 µM
COc1ccc(S(=O)(=O)N2CC(C)(C)CN(S(=O)(=O)c3ccc(OC)cc3)C2C(=O)NO)cc1	> 11.5 µM	> 20 µM	6.37 µM	> 20 µM	> 20 µM	> 20 µM	> 20 µM	> 20 µM	> 20 µM	> 20 µM	> 20 µM	> 20 µM	> 6.77 µM	> 20 µM	19.8 µM	> 20 µM
CCOC(=O)N1CCN(c2nc(Nc3cc(C)[nH]n3)c3ccccc3n2)CC1	0.854 µM	24.6 µM	3.4 µM	13.6 µM	2.94 µM	> 100 µM	1.95 µM	14.2 µM	12.2 µM	91.3 µM	3.89 µM	40 µM	1.16 µM	5.42 µM	7.69 µM	37.3 µM
CCOc1ccc2nc(SCc3nc4n(n3)S(=O)(=O)c3ccccc3N4C)sc2c1	> 100 µM	> 100 µM	31.5 µM	> 100 µM	71.2 µM	> 100 µM	> 100 µM	> 100 µM	> 100 µM	> 100 µM	> 100 µM	> 100 µM	45 µM	> 100 µM	> 100 µM	> 100 µM
Cc1ccc(-c2csc(/N=C3\C(=O)Nc4ccccc43)n2)cc1	1.96 µM	22.4 µM	1.05 µM	4.29 µM	1.73 µM	> 100 µM	1.63 µM	3.28 µM	1.47 µM	3.03 µM	2.16 µM	5.99 µM	1.97 µM	6.66 µM	1.64 µM	4.89 µM
OCc1ccc(-c2ccc(-c3ccc(CO)o3)[se]2)o1	> 95.3 µM	> 100 µM	33.7 µM	> 100 µM	38.1 µM	> 100 µM	> 100 µM	> 100 µM	> 100 µM	> 100 µM	> 94 µM	> 100 µM	> 79 µM	> 100 µM	31.3 µM	> 100 µM
CCC[CH2][Sn]([CH2]CCC)([CH2]CCC)[O]c1ccc(Cl)cc1Cl	0.0572 µM	0.203 µM			0.12 µM	0.408 µM	0.135 µM	0.266 µM	0.162 µM	0.302 µM	0.13 µM	0.271 µM			0.128 µM	0.259 µM
O=C(O)CCCCCCC[C@H]1S[C@H]1CCCCCCO		> 100 µM		> 100 µM		> 100 µM		> 100 µM		> 100 µM						> 100 µM
COc1cc(-c2cc3ncccc3c3nc(N)c4cccnc4c23)cc(OC)c1OC	0.936 µM	59.8 µM	0.556 µM	23.9 µM	0.169 µM	14.5 µM	0.511 µM	10.8 µM	2.93 µM	> 100 µM	0.487 µM	3.13 µM	0.692 µM	> 100 µM	0.229 µM	2.68 µM
Cc1cc(S(=O)(=O)Nc2nc3cscc3c(=O)n2Cc2ccccc2)c(S)cc1Cl	51.8 µM	> 100 µM	26.7 µM	> 100 µM	74.1 µM	> 100 µM	24.3 µM	> 100 µM	74.3 µM	> 100 µM	41 µM	> 100 µM	65.6 µM	> 100 µM	32.2 µM	> 100 µM
COc1ccc2c(c1)C(=O)c1c-2n(CCCN=[N+]=[N-])c(=O)c2cc(OC)c(OC)cc12	44.3 µM	> 100 µM	0.868 µM	5.58 µM			26.7 µM	89.5 µM	> 100 µM	> 100 µM	26.6 µM	> 100 µM	70 µM	> 100 µM	49.2 µM	> 100 µM
Cc1ccc(C)c2c1C(O)(C#Cc1ccccc1)c1ccccc1C2(O)C#Cc1ccccc1 (centres undefined)	1.89 µM	6.83 µM	1.83 µM		4.4 µM	> 100 µM	3.72 µM	> 35.7 µM	3.75 µM	> 88.5 µM	3.32 µM	> 100 µM	3.4 µM	> 100 µM	3.12 µM	> 34.7 µM
Cc1ccc(S(=O)(=O)NC(=O)C2C(=O)CC3(CCCCC3)CC2=O)cc1		60.4 µM		51.5 µM		> 100 µM		> 100 µM				> 100 µM		> 100 µM		92.2 µM
COc1cc(NC(N)=NCCC(C)(C)Oc2ccc(C(F)(F)F)cc2)ncc1C#N	1.48 µM	2.85 µM					1.61 µM	3.14 µM	1.83 µM	3.23 µM	1.72 µM	3.12 µM			1.68 µM	3.17 µM
CCC12CCCN(Cc3ccccc3)C1c1c([nH]c3ccccc13)C(C(=O)OC)C2 (centres undefined)				> 10 µM		> 10 µM		> 10 µM		> 10 µM		> 10 µM		> 10 µM		> 10 µM
